Assay results from patent publication US20240252488A1 (KOREA RESEARCH INSTITUTE OF CHEMICAL TECHNOLOGY, priority 2020, published 2024).

Key:
[1] = system: FADD−/− Jurkat cells; assay: Necroptosis inhibition assay, TNF-α-induced necroptosis (CellTiter-Glo 2.0); assay type: cell-based, human; details: TNF-α 15 ng/mL; for Necroptosis inhibition assay (Rescue %) 1 μM: compound 1 μM; for Necroptosis inhibition assay (Rescue %) 10 μM: compound 10 μM
How it was run: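 Luminescent ATP measurement gave viability, from which cytotoxicity and necroptosis inhibition rate were derived. Before that, cells (5.0×10^5 cells/mL) saw compound at 0.1, 1 or 10 μM final for 30 minutes at room temperature, then TNF-α (15 ng/mL final) for 20 to 24 hours at 37° C.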

[2] = target: T1, MLKL (Homo sapiens, UniProt Q8NB16); assay: MLKL degradation assay in HepG2 cell line (western blot); assay type: cell-based; parameters: endogenous in cells; host or cells: HepG2 or HaCaT; details: cell line not given; for Degradation assay (Degradation %) 1 μM: compound 1 μM; for Degradation assay (Degradation %) 10 μM: compound 10 μM
T1 sequence (Q8NB16 1-471): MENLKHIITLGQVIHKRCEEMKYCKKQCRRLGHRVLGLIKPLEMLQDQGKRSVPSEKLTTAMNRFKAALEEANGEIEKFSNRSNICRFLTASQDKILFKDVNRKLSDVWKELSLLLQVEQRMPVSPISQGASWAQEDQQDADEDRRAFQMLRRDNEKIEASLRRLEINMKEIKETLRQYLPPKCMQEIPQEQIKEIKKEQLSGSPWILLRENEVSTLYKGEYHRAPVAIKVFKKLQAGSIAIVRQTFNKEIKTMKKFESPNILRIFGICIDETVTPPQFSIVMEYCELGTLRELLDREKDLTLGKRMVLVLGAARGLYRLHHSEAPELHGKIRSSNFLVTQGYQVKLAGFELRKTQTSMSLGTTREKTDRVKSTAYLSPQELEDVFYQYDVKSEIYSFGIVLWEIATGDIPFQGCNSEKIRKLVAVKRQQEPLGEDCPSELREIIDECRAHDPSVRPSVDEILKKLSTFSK
How it was run: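 Cells seeded, next day medium swapped for compound-containing medium (final 1 or 10 μM) and incubated 20-24 h at 37 °C. Lysates in RIPA with protease/phosphatase inhibitors were protein-matched by BCA, run on SDS-PAGE and immunoblotted for MLKL.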

[3] = target: T1, MLKL; assay: Measurement of binding affinity with MLKL receptor (competitive binding assay, Kd); parameters: made in house; host or cells: HEK 293 cell line (T7 phage in E. coli BL21-derived host is also described)
How it was run: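 Competition binding of kinase tagged with DNA for qPCR detection, expressed in HEK 293 cells, against immobilized ligand on beads. Final DMSO 0.9%. Kd derived from kinase amount in eluates measured by qPCR.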

SMILES | Degradation assay (Degradation %) 1 μM [2] | Degradation assay (Degradation %) 10 μM [2] | Kd [3] | Necroptosis inhibition assay (Rescue %) 1 μM [1] | Necroptosis inhibition assay (Rescue %) 10 μM [1]
Nc1ncc(-c2cnn(C3CCN(CCC4CCN(c5cccc6nnn(C7CCC(=O)NC7=O)c(=O)c56)CC4)CC3)c2)nc1C(=O)OC(C(=O)Nc1ccc(F)cc1)c1ccccc1 (stereo not shown) [TDH-294, 2-((4-fluorophenyl)amino)-2-oxo-1-phenylethyl 3-amino-6-(1-(1-(2-(1-(3-(2,6-dioxopiperidin-3-yl)-4-oxo-3,4-dihydrobenzo[d][1,2,3]triazin-5-yl)piperidin-4-yl)ethyl)piperidin-4-yl)-1H-pyrazol-4-yl)pyrazine-2-carboxylate] | 25.53% | 23.63% | 4.7 nM | 67.12% | 33.24%
Nc1ncc(-c2cnn(C3CN(CC4CCN(C(=O)CNc5cccc6c5C(=O)N(C5CCC(=O)NC5=O)C6=O)CC4)C3)c2)nc1C(=O)OC(C(=O)Nc1ccc(F)cc1)c1ccccc1 (stereo not shown) [TDH-296, 2-((4-fluorophenyl)amino)-2-oxo-1-phenylethyl 3-amino-6-(1-(1-((1-((2-(2,6-dioxopiperidin-3-yl)-1,3-dioxoisoindolin-4-yl)glycyl)piperidin-4-yl)methyl)azetidin-3-yl)-1H-pyrazol-4-yl)pyrazine-2-carboxylate] | 75.78% | 62.01% | 22 nM | 25.58% | 26.91%
Nc1ncc(-c2cnn(C3CN(CC4CCN(C(=O)CNc5ccc6c(c5)C(=O)N(C5CCC(=O)NC5=O)C6=O)CC4)C3)c2)nc1C(=O)OC(C(=O)Nc1ccc(F)cc1)c1ccccc1 (stereo not shown) [TDH-297, 2-((4-fluorophenyl)amino)-2-oxo-1-phenylethyl 3-amino-6-(1-(1-((1-((2-(2,6-dioxopiperidin-3-yl)-1,3-dioxoisoindolin-5-yl)glycyl)piperidin-4-yl)methyl)azetidin-3-yl)-1H-pyrazol-4-yl)pyrazine-2-carboxylate] | 76.86% | 70.16% | 13 nM | 74.28% | 63.92%
Nc1ncc(-c2cnn(C3CN(CC4CCN(C(=O)COc5cccc6c5C(=O)N(C5CCC(=O)NC5=O)C6=O)CC4)C3)c2)nc1C(=O)OC(C(=O)Nc1ccc(F)cc1)c1ccccc1 (stereo not shown) [TDH-298, 2-((4-fluorophenyl)amino)-2-oxo-1-phenylethyl 3-amino-6-(1-(1-((1-(2-((2-(2,6-dioxopiperidin-3-yl)-1,3-dioxoisoindolin-4-yl)oxy)acetyl)piperidin-4-yl)methyl)azetidin-3-yl)-1H-pyrazol-4-yl)pyrazine-2-carboxylate] | 45.8% | 78.83% | 9.8 nM | 41.64% | 66.6%
Nc1ncc(-c2cnn(C3CN(CC4CCN(C(=O)COc5ccc6c(c5)C(=O)N(C5CCC(=O)NC5=O)C6=O)CC4)C3)c2)nc1C(=O)OC(C(=O)Nc1ccc(F)cc1)c1ccccc1 (stereo not shown) [TDH-299, 2-((4-fluorophenyl)amino)-2-oxo-1-phenylethyl 3-amino-6-(1-(1-((1-(2-((2-(2,6-dioxopiperidin-3-yl)-1,3-dioxoisoindolin-5-yl)oxy)acetyl)piperidin-4-yl)methyl)azetidin-3-yl)-1H-pyrazol-4-yl)pyrazine-2-carboxylate] | 79.84% | 89.54% | 7.2 nM | 75.61% | 62.7%
Nc1ncc(-c2cnn(C3CCN(CCC4CCN(C(=O)COc5ccc6c(c5)C(=O)N(C5CCC(=O)NC5=O)C6=O)CC4)CC3)c2)cc1C(=O)OC(C(=O)Nc1ccc(F)cc1)c1ccccc1 (stereo not shown) [TDH-300, 2-((4-fluorophenyl)amino)-2-oxo-1-phenylethyl 2-amino-5-(1-(1-(2-(1-(2-((2-(2,6-dioxopiperidin-3-yl)-1,3-dioxoisoindolin-5-yl)oxy)acetyl)piperidin-4-yl)ethyl)piperidin-4-yl)-1H-pyrazol-4-yl)nicotinate] | 54.31% | 69.42% | 9 nM | 55.98% | 38.09%

More lines, main results first:

Degradation assay (Degradation %) 1 μM [2] | Degradation assay (Degradation %) 10 μM [2] | Kd [3] | SMILES | Necroptosis inhibition assay (Rescue %) 1 μM [1] | Necroptosis inhibition assay (Rescue %) 10 μM [1]
56.44% | 44.97% | 5.3 nM | Nc1ncc(-c2cnn(C3CCN(CCC4CCN(C(=O)C5CCN(c6ccc7nnn(C8CCC(=O)NC8=O)c(=O)c7c6)CC5)CC4)CC3)c2)nc1C(=O)OC(C(=O)Nc1ccc(F)cc1)c1ccccc1 (stereo not shown) [TDH-290, 2-((4-fluorophenyl)amino)-2-oxo-1-phenylethyl 3-amino-6-(1-(1-(2-(1-(1-(3-(2,6-dioxopiperidin-3-yl)-4-oxo-3,4-dihydrobenzo[d][1,2,3]triazin-6-yl)piperidine-4-carbonyl)piperidin-4-yl)ethyl)piperidin-4-yl)-1H-pyrazol-4-yl)pyrazine-2-carboxylate] | 90.57% | 84.93%
70.94% | 48.11% | 6.7 nM | Nc1ncc(-c2cnn(C3CCN(CCC4CCN(C(=O)C5CN(c6ccc7nnn(C8CCC(=O)NC8=O)c(=O)c7c6)C5)CC4)CC3)c2)nc1C(=O)OC(C(=O)Nc1ccc(F)cc1)c1ccccc1 (stereo not shown) [TDH-291, 2-((4-fluorophenyl)amino)-2-oxo-1-phenylethyl 3-amino-6-(1-(1-(2-(1-(1-(3-(2,6-dioxopiperidin-3-yl)-4-oxo-3,4-dihydrobenzo[d][1,2,3]triazin-6-yl)azetidine-3-carbonyl)piperidin-4-yl)ethyl)piperidin-4-yl)-1H-pyrazol-4-yl)pyrazine-2-carboxylate] | 87.96% | 64.92%
79.96% | 81.68% | 2.3 nM | Nc1ncc(-c2cnn(C3CCN(CCC4CCN(C(=O)CNc5ccc6nnn(C7CCC(=O)NC7=O)c(=O)c6c5)CC4)CC3)c2)nc1C(=O)OC(C(=O)Nc1ccc(F)cc1)c1ccccc1 (stereo not shown) [TDH-292, 2-((4-fluorophenyl)amino)-2-oxo-1-phenylethyl 3-amino-6-(1-(1-(2-(1-((3-(2,6-dioxopiperidin-3-yl)-4-oxo-3,4-dihydrobenzo[d][1,2,3]triazin-6-yl)glycyl)piperidin-4-yl)ethyl)piperidin-4-yl)-1H-pyrazol-4-yl)pyrazine-2-carboxylate] | 78.15% | 73.02%
76.09% | 71.04% | 2.3 nM | Nc1ncc(-c2cnn(C3CCN(CCC4CCN(C(=O)COc5ccc6nnn(C7CCC(=O)NC7=O)c(=O)c6c5)CC4)CC3)c2)nc1C(=O)OC(C(=O)Nc1ccc(F)cc1)c1ccccc1 (stereo not shown) [TDH-293, 2-((4-fluorophenyl)amino)-2-oxo-1-phenylethyl 3-amino-6-(1-(1-(2-(1-(2-((3-(2,6-dioxopiperidin-3-yl)-4-oxo-3,4-dihydrobenzo[d][1,2,3]triazin-6-yl)oxy)acetyl)piperidin-4-yl)ethyl)piperidin-4-yl)-1H-pyrazol-4-yl)pyrazine-2-carboxylate] | 108.66% | 87.1%
70.94% | 57.99% | 8.1 nM | Nc1ncc(-c2cnn(C3CCN(CCC4CCN(c5ccc6nnn(C7CCC(=O)NC7=O)c(=O)c6c5)CC4)CC3)c2)nc1C(=O)OC(C(=O)Nc1ccc(F)cc1)c1ccccc1 (stereo not shown) [TDH-295, 2-((4-fluorophenyl)amino)-2-oxo-1-phenylethyl 3-amino-6-(1-(1-(2-(1-(3-(2,6-dioxopiperidin-3-yl)-4-oxo-3,4-dihydrobenzo[d][1,2,3]triazin-6-yl)piperidin-4-yl)ethyl)piperidin-4-yl)-1H-pyrazol-4-yl)pyrazine-2-carboxylate] | 63.46% | 37.73%
